Measured values as given in ChEMBL document CHEMBL1201862, “PubChem BioAssay data set” (2004).
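48-hour exposure; five concentrations; linearly interpolated endpoints. GI50 = concentration required for 50% inhibition of growth.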 Calls of active or inactive are those of the source. No stated cut-off is given here; in the data, active = GI50 up to about 1.1 µM and inactive = higher.

How the values were obtained:
Test in all cases: DTP human tumour cell line panel, 48 h
786-0 = system: 786-0
A549 = system: A549
ACHN = system: ACHN
BT-549 = system: BT-549
CCRF-CEM = system: CCRF-CEM
DU-145 = system: DU-145
EKVX = system: EKVX
HL-60 = system: HL-60
HT-29 = system: HT-29
Hs-578T = system: Hs-578T
IGROV-1 = system: IGROV-1
K562 = system: K562
KM12 = system: KM12
M14 = system: M14
MCF7 = system: MCF7
MDA-MB-231 = system: MDA-MB-231
MDA-MB-435 = system: MDA-MB-435
MDA-N = system: MDA-N
MOLT-4 = system: MOLT-4
NCI-H226 = system: NCI-H226
NCI-H23 = system: NCI-H23
NCI-H460 = system: NCI-H460
NCI-H522 = system: NCI-H522
OVCAR-3 = system: OVCAR-3
OVCAR-4 = system: OVCAR-4
OVCAR-5 = system: OVCAR-5
OVCAR-8 = system: OVCAR-8
RXF 393 = system: RXF 393
SF-268 = system: SF-268
SF-295 = system: SF-295
SF-539 = system: SF-539
SK-MEL-5 = system: SK-MEL-5
SNB-19 = system: SNB-19
SNB-75 = system: SNB-75
SR = system: SR
T47D = system: T47D
TK-10 = system: TK-10
U-251 = system: U-251
UACC-257 = system: UACC-257
UO-31 = system: UO-31
A498 = system: A498
CAKI-1 = system: CAKI-1
HCC 2998 = system: HCC 2998
HCT-116 = system: HCT-116
HCT-15 = system: HCT-15
HOP-62 = system: HOP-62
HOP-92 = system: HOP-92
LOX IMVI = system: LOX IMVI
Malme-3M = system: Malme-3M
NCI/ADR-RES = system: NCI/ADR-RES
PC-3 = system: PC-3
SK-MEL-28 = system: SK-MEL-28
SK-MEL-2 = system: SK-MEL-2
SK-OV-3 = system: SK-OV-3
SN12C = system: SN12C
SW-620 = system: SW-620
UACC-62 = system: UACC-62
COLO 205 = system: COLO 205
RPMI-8226 = system: RPMI-8226

CC(C)=Nn1cnc2c1=NC(C)(C)NC=2C(N)=O
GI50 (786-0): > 10 µM (inactive)
GI50 (A549): > 10 µM (inactive)
GI50 (ACHN): > 10 µM (inactive)
GI50 (BT-549): > 10 µM (inactive)
GI50 (CCRF-CEM): > 10 µM (inactive)
GI50 (DU-145): > 10 µM (inactive)
GI50 (EKVX): > 10 µM (inactive)
GI50 (HL-60): > 10 µM (inactive)
GI50 (HT-29): 1 µM (active)
GI50 (Hs-578T): > 10 µM (inactive)
GI50 (IGROV-1): > 10 µM (inactive)
GI50 (K562): > 10 µM (inactive)
GI50 (KM12): > 10 µM (inactive)
GI50 (M14): > 10 µM (inactive)
GI50 (MCF7): > 10 µM (inactive)
GI50 (MDA-MB-231): 0.125 µM (active)
GI50 (MDA-MB-435): > 10 µM (inactive)
GI50 (MDA-N): > 10 µM (inactive)
GI50 (MOLT-4): > 10 µM (inactive)
GI50 (NCI-H226): > 10 µM (inactive)
GI50 (NCI-H23): > 10 µM (inactive)
GI50 (NCI-H460): > 10 µM (inactive)
GI50 (NCI-H522): > 10 µM (inactive)
GI50 (OVCAR-3): > 10 µM (inactive)
GI50 (OVCAR-4): > 10 µM (inactive)
GI50 (OVCAR-5): > 10 µM (inactive)
GI50 (OVCAR-8): > 10 µM (inactive)
GI50 (RXF 393): > 10 µM (inactive)
GI50 (SF-268): > 10 µM (inactive)
GI50 (SF-295): > 10 µM (inactive)
GI50 (SF-539): > 10 µM (inactive)
GI50 (SK-MEL-5): > 10 µM (inactive)
GI50 (SNB-19): > 10 µM (inactive)
GI50 (SNB-75): > 10 µM (inactive)
GI50 (SR): > 10 µM (inactive)
GI50 (T47D): 0.001 µM (active)
GI50 (TK-10): > 10 µM (inactive)
GI50 (U-251): > 10 µM (inactive)
GI50 (UACC-257): > 10 µM (inactive)
GI50 (UO-31): > 10 µM (inactive)

c1ccc2c(-c3csc(-c4c[nH]c5ccccc45)n3)c[nH]c2c1
GI50 (786-0): > 65 µM (inactive)
GI50 (A498): > 100 µM (inactive)
GI50 (A549): 96.8 µM (inactive)
GI50 (ACHN): > 100 µM (inactive)
GI50 (BT-549): > 100 µM (inactive)
GI50 (CAKI-1): > 100 µM (inactive)
GI50 (DU-145): > 76.7 µM (inactive)
GI50 (EKVX): > 100 µM (inactive)
GI50 (HCC 2998): > 100 µM (inactive)
GI50 (HCT-116): > 48.8 µM (inactive)
GI50 (HCT-15): > 100 µM
GI50 (HL-60): 14.4 µM (inactive)
GI50 (HOP-62): 56.4 µM (inactive)
GI50 (HOP-92): > 100 µM (inactive)
GI50 (HT-29): 39.4 µM (inactive)
GI50 (Hs-578T): 61.1 µM (inactive)
GI50 (IGROV-1): > 28.5 µM (inactive)
GI50 (K562): 3.37 µM (inactive)
GI50 (KM12): 14.9 µM (inactive)
GI50 (LOX IMVI): 21.8 µM (inactive)
GI50 (M14): > 100 µM (inactive)
GI50 (MCF7): > 52.1 µM (inactive)
GI50 (MDA-MB-231): > 67.8 µM (inactive)
GI50 (MDA-MB-435): 35.8 µM (inactive)
GI50 (MDA-N): 49 µM (inactive)
GI50 (MOLT-4): 4.86 µM (inactive)
GI50 (Malme-3M): > 100 µM (inactive)
GI50 (NCI-H226): > 100 µM (inactive)
GI50 (NCI-H23): > 100 µM (inactive)
GI50 (NCI-H460): > 53.7 µM (inactive)
GI50 (NCI/ADR-RES): > 100 µM (inactive)
GI50 (OVCAR-3): > 100 µM (inactive)
GI50 (OVCAR-4): > 100 µM (inactive)
GI50 (OVCAR-5): > 51.9 µM (inactive)
GI50 (OVCAR-8): > 100 µM (inactive)
GI50 (PC-3): > 100 µM (inactive)
GI50 (RXF 393): > 100 µM (inactive)
GI50 (SF-268): > 100 µM (inactive)
GI50 (SF-295): 15.4 µM (inactive)
GI50 (SF-539): > 100 µM (inactive)
GI50 (SK-MEL-28): > 100 µM (inactive)
GI50 (SK-MEL-2): > 100 µM (inactive)
GI50 (SK-OV-3): > 44.8 µM (inactive)
GI50 (SN12C): > 100 µM (inactive)
GI50 (SNB-19): > 89.7 µM (inactive)
GI50 (SNB-75): > 22.4 µM (inactive)
GI50 (SR): 2.93 µM (inactive)
GI50 (SW-620): > 100 µM (inactive)
GI50 (TK-10): 63.8 µM (inactive)
GI50 (U-251): > 90.6 µM (inactive)
GI50 (UACC-257): > 100 µM (inactive)
GI50 (UACC-62): > 100 µM (inactive)
GI50 (UO-31): > 48.1 µM (inactive)

CC(C)CCC[C@@H](C)C1CCC2[C@@H]3CCC4CC(CCC=C(c5cc(Cl)c(OC(=O)c6ccccc6)c(C(=O)O)c5)c5cc(Cl)c(OC(=O)c6ccccc6)c(C(=O)O)c5)CC[C@]4(C)C3CC[C@@]21C (some centres not stated)
GI50 (786-0): 22.6 µM (inactive)
GI50 (A498): 52.5 µM (inactive)
GI50 (A549): > 100 µM (inactive)
GI50 (ACHN): > 100 µM (inactive)
GI50 (BT-549): > 100 µM (inactive)
GI50 (CAKI-1): > 100 µM (inactive)
GI50 (CCRF-CEM): > 100 µM (inactive)
GI50 (COLO 205): > 100 µM (inactive)
GI50 (DU-145): > 100 µM (inactive)
GI50 (EKVX): 88.3 µM (inactive)
GI50 (HCC 2998): > 100 µM (inactive)
GI50 (HCT-116): > 100 µM (inactive)
GI50 (HCT-15): 46.1 µM
GI50 (HL-60): > 100 µM (inactive)
GI50 (HOP-62): > 100 µM (inactive)
GI50 (HOP-92): 28.1 µM (inactive)
GI50 (HT-29): > 100 µM (inactive)
GI50 (Hs-578T): > 100 µM (inactive)
GI50 (IGROV-1): 34.8 µM (inactive)
GI50 (K562): > 100 µM (inactive)
GI50 (KM12): > 100 µM (inactive)
GI50 (M14): 15.8 µM (inactive)
GI50 (MCF7): > 100 µM (inactive)
GI50 (MDA-MB-231): 12.6 µM (inactive)
GI50 (MDA-MB-435): 72.8 µM (inactive)
GI50 (MDA-N): > 100 µM (inactive)
GI50 (MOLT-4): > 100 µM (inactive)
GI50 (Malme-3M): 64.7 µM (inactive)
GI50 (NCI-H226): 85.7 µM (inactive)
GI50 (NCI-H23): > 100 µM (inactive)
GI50 (NCI-H460): > 100 µM (inactive)
GI50 (NCI-H522): > 100 µM (inactive)
GI50 (NCI/ADR-RES): > 100 µM (inactive)
GI50 (OVCAR-3): 74.8 µM (inactive)
GI50 (OVCAR-4): > 100 µM (inactive)
GI50 (OVCAR-5): > 100 µM (inactive)
GI50 (OVCAR-8): > 100 µM (inactive)
GI50 (PC-3): > 100 µM (inactive)
GI50 (RPMI-8226): > 100 µM (inactive)
GI50 (RXF 393): > 100 µM (inactive)
GI50 (SF-539): > 100 µM (inactive)
GI50 (SK-MEL-2): > 100 µM (inactive)
GI50 (SK-MEL-5): 28.8 µM (inactive)
GI50 (SK-OV-3): > 100 µM (inactive)
GI50 (SN12C): > 100 µM (inactive)
GI50 (SNB-19): > 100 µM (inactive)
GI50 (SNB-75): > 100 µM (inactive)
GI50 (SW-620): > 100 µM (inactive)
GI50 (TK-10): 52.2 µM (inactive)
GI50 (U-251): > 100 µM (inactive)
GI50 (UACC-257): 58.2 µM (inactive)
GI50 (UACC-62): > 100 µM (inactive)
GI50 (UO-31): > 100 µM (inactive)

CC(=O)/C=C/CCC(=O)/C=C/C(=O)OC(CCC(=O)/C=C/C(=O)O)CC(C)=O (configuration not stated)
GI50 (786-0): > 100 µM (inactive)
GI50 (A549): > 100 µM (inactive)
GI50 (ACHN): > 100 µM (inactive)
GI50 (BT-549): > 100 µM (inactive)
GI50 (CCRF-CEM): 43.8 µM (inactive)
GI50 (COLO 205): > 100 µM (inactive)
GI50 (DU-145): > 100 µM (inactive)
GI50 (EKVX): > 100 µM (inactive)
GI50 (HCC 2998): > 100 µM (inactive)
GI50 (HCT-116): > 100 µM (inactive)
GI50 (HCT-15): 92.5 µM
GI50 (HL-60): 32.8 µM (inactive)
GI50 (HOP-62): > 100 µM (inactive)
GI50 (HOP-92): > 100 µM (inactive)
GI50 (HT-29): > 100 µM (inactive)
GI50 (IGROV-1): > 100 µM (inactive)
GI50 (K562): > 100 µM (inactive)
GI50 (KM12): > 100 µM (inactive)
GI50 (M14): > 100 µM (inactive)
GI50 (MCF7): 93.1 µM (inactive)
GI50 (MDA-MB-231): > 100 µM (inactive)
GI50 (MDA-MB-435): > 100 µM (inactive)
GI50 (MDA-N): > 100 µM (inactive)
GI50 (MOLT-4): > 100 µM (inactive)
GI50 (Malme-3M): > 100 µM (inactive)
GI50 (NCI-H226): 42.6 µM (inactive)
GI50 (NCI-H23): > 100 µM (inactive)
GI50 (NCI-H460): > 100 µM (inactive)
GI50 (NCI-H522): 96.4 µM (inactive)
GI50 (NCI/ADR-RES): > 100 µM (inactive)
GI50 (OVCAR-3): > 100 µM (inactive)
GI50 (OVCAR-4): > 100 µM (inactive)
GI50 (OVCAR-5): > 100 µM (inactive)
GI50 (OVCAR-8): > 100 µM (inactive)
GI50 (PC-3): > 100 µM (inactive)
GI50 (RPMI-8226): 54.7 µM (inactive)
GI50 (RXF 393): > 100 µM (inactive)
GI50 (SF-268): > 100 µM (inactive)
GI50 (SF-295): > 100 µM (inactive)
GI50 (SF-539): > 100 µM (inactive)
GI50 (SK-MEL-28): > 100 µM (inactive)
GI50 (SK-MEL-5): > 100 µM (inactive)
GI50 (SN12C): > 100 µM (inactive)
GI50 (SNB-19): > 100 µM (inactive)
GI50 (SR): 88.9 µM (inactive)
GI50 (SW-620): > 100 µM (inactive)
GI50 (T47D): > 100 µM (inactive)
GI50 (TK-10): > 100 µM (inactive)
GI50 (U-251): > 100 µM (inactive)
GI50 (UACC-257): > 100 µM (inactive)
GI50 (UACC-62): 1.19 µM (inactive)
